From patent US10689354B2, “Aminoazole derivative” (Teijin Pharma Limited, priority 2015, dated 2020)

Assays:
[1] = target: T1, androgen receptor (AR-LBD) (Rattus norvegicus, UniProt P15207); experiment: Evaluation of androgen receptor affinity (PolarScreen Androgen Receptor Competitor Assay Kit, Red; fluorescence polarization); details: 22° C. for 5 hours, relative to binding rate of 1 μM DHT, read-out: AR affinity (pEC50) (converted)
T1 construct: 5 μL of 2×AR-LBD/Fluoromone AL Red Complex contained in the kit; purchased Invitrogen
T1 sequence (P15207 651-882 limits assumed): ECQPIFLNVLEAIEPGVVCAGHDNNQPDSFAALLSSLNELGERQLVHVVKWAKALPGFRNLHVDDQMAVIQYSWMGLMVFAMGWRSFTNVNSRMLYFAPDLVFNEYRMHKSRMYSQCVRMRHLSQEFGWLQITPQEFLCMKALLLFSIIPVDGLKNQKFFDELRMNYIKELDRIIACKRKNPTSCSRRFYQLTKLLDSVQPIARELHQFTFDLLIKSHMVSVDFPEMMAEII
In short: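 Duplicate wells; compound plus AR-LBD tracer complex incubated 22° C for 5 h, then FP measured. Effect compared with 1 μM DHT; 50%-effect concentration expressed as pEC50.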

human androgen receptor = target: T2, human androgen receptor (Homo sapiens, UniProt P10275); experiment: Reporter assay of an androgen receptor responsive sequence (luciferase, transiently transfected HEK293 cells); assay type: cell-based; details: 24 hours incubation, relative to activity of 100 nM DHT, read-out: AR transcriptive activity (pEC50) (converted)
T2 construct: expressed in transfected cells; host or cells: HEK293
T2 sequence (P10275 1-920): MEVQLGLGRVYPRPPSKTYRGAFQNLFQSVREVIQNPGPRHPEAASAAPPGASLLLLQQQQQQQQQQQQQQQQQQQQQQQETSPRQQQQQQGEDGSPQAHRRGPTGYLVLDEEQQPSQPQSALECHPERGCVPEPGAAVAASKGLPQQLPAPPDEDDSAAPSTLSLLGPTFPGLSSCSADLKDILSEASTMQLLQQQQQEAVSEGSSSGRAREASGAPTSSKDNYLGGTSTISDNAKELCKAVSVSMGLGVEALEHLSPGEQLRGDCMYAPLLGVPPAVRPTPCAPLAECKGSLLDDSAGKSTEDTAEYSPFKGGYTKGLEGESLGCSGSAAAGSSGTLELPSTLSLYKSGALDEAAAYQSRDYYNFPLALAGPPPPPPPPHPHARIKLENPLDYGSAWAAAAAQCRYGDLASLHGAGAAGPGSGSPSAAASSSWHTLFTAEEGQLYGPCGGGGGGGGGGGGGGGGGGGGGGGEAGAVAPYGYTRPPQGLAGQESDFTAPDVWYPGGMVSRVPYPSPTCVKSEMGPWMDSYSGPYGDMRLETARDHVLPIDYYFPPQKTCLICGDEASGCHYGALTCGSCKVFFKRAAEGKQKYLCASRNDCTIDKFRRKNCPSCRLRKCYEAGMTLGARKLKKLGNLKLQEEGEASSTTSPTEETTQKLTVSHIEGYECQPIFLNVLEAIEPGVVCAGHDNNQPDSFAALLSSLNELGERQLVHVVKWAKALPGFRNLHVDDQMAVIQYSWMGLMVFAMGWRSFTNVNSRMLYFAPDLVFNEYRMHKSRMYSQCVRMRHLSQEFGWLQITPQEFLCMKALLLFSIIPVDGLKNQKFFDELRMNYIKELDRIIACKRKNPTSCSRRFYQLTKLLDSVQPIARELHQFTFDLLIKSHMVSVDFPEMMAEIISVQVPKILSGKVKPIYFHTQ
Experimental: Reporter Assay of an Androgen Receptor Responsive Sequence
To examine the agonist activity of compounds for androgen, a reporter assay using an androgen receptor responsive sequence was conducted.
Using Lipofectamine 2000 (Invitrogen), a plasmid mixture (pGL4-ARE (200 ng/well), pcDNA3-hAR (20 ng/well), pRL-TK (Promega) (150 ng/well)) was transiently transfected into HEK293 cells. The contents of the plasmid (mixture) are as follows:
pGL4-ARE is a reporter plasmid containing firefly luciferase sequence under the control of androgen receptor responsive sequence; pcDNA3-hAR is a plasmid containing full-length sequence of human androgen receptor under the constant control of CMV promoter; pRL-TK is a plasmid containing Renilla Luciferase sequence under the control of herpes simplex virus thymidine kinase and used as an internal standard for evaluations of transfection efficiency and compound toxicity.
After the incubation of Lipofectamine 2000 and the plasmid mixture in Opti-MEM for 20 minutes, the mixture was mixed with a cell suspension prepared with Opti-MEM in the similar way, and the cell suspension was plated to a 96-well plate at 20000 cells/well. The transfection was conducted by incubating the plates under the condition of 5% CO2 at 37° C. for 3 hours. Three hours after the transfection, the culture medium was removed and a compound solution prepared by DMEM supplemented with 5% FBS and treated with charcoal was added, and the mixture was incubated under the condition of 5% CO2 at 37° C. for 24 hours. After the incubation with the compound, luciferase activities were measured with a luminometer using Dual-Glo™ Luciferase Assay System (Promega). The measurement of the luciferase activities was performed in accordance with the protocol recommended by Promega. The activity of the compound was determined by comparing to the activity of 100 nM of DHT, and quantified the logarithm value (pEC50) of reciprocal value of the effective concentration of the compound which is equal to 50% of the activity value by applying a 4 parameter goodness-of-fit calculation.

Row | EC50 [1] [nM] | EC50 (human androgen receptor) [nM] | SMILES
1 | 63.1 | 200 | Cc1sc(N(Cc2ncc(C(F)(F)F)cc2F)c2ccc(C#N)cc2)nc1C(=O)NS(C)(=O)=O [Example 170, 2-[4-cyano-N-[[3-fluoro-5-(trifluoromethyl)-2-pyridyl]methyl]anilino]-5-methyl-N-methylsulfonyl-thiazole-4-carboxamide]
2 | 31.6 | 158 | COCCCS(=O)(=O)NC(=O)c1nc(N(Cc2ccc(OC(F)F)c(Cl)c2)c2ccc(C#N)cc2)sc1C [Example 189, 2-[N-[[3-chloro-4-(difluoromethoxy)phenyl]methyl]-4-cyano-anilino]-N-(3-methoxypropylsulfonyl)-5-methyl-thiazole-4-carboxamide]
3 | 50.1 | 200 | Cc1sc(N(Cc2cccc(N(C)C)c2)c2ccc(C#N)cc2)nc1C(=O)NS(C)(=O)=O [Example 215, 2-[4-cyano-N-[[3-(dimethylamino)phenyl]methyl]anilino]-5-methyl-N-methylsulfonyl-thiazole-4-carboxamide]
4 | 31.6 | 50.1 | COCCCS(=O)(=O)NC(=O)c1nc(N(Cc2ccc(Br)cc2)c2ccc(C#N)cc2)sc1C [Example 191, 2-[N-[(4-bromophenyl)methyl]-4-cyano-anilino]-N-(3-methoxypropylsulfonyl)-5-methyl-thiazole-4-carboxamide]
5 | 31.6 | 25.1 | Cc1sc(N(Cc2ccc(Br)c(F)c2)c2ccc(C#N)cc2)nc1C(=O)NS(C)(=O)=O [Example 181, 2-[N-[(4-bromo-3-fluoro-phenyl)methyl]-4-cyano-anilino]-5-methyl-N-methylsulfonyl-thiazole-4-carboxamide]
6 | 398 | 631 | Cc1nc(CN(c2ccc(C#N)cc2)c2nc(C(=O)NS(C)(=O)=O)c(Br)s2)cs1 [Example 281, 5-bromo-2-[4-cyano-N-[(2-methylthiazol-4-yl)methyl]anilino]-N-methylsulfonyl-thiazole-4-carboxamide]
7 | 31.6 | 31.6 | Cc1sc(N(Cc2ccc(OC(F)F)c(F)c2)c2ccc(C#N)cc2)nc1C(=O)NS(C)(=O)=O [Example 172, 2-[4-cyano-N-[[4-(difluoromethoxy)-3-fluoro-phenyl]methyl]anilino]-5-methyl-N-methylsulfonyl-thiazole-4-carboxamide]

The next lines start with the compound.

Row | SMILES | EC50 [1] [nM] | EC50 (human androgen receptor) [nM]
8 | Cc1sc(N(Cc2ccc(-c3ccccc3F)cn2)c2ccc(C#N)cc2)nc1C(=O)NS(C)(=O)=O [Compound 594, 2-[4-cyano-N-[[5-(2-fluorophenyl)-2-pyridyl]methyl]anilino]-5-methyl-N-methylsulfonyl-thiazole-4-carboxamide] | 79.4 | 1580
9 | Cc1sc(N(CCC2CCCCC2)c2ccc(C#N)cc2)nc1C(=O)NS(C)(=O)=O [Compound 407, 2-[4-cyano-N-(2-cyclohexylethyl)anilino]-5-methyl-N-methylsulfonyl-thiazole-4-carboxamide] | 50.1 | 200
10 | Cc1sc(N(Cc2ccccc2O)c2ccc(C#N)cc2)nc1C(=O)NS(C)(=O)=O [Compound 461, 2-[4-cyano-N-[(2-hydroxyphenyl)methyl]anilino]-5-methyl-N-methylsulfonyl-thiazole-4-carboxamide] | 100 | 158
11 | Cc1sc(N(CCc2ccc(Cl)cc2)CC2CCCCC2)nc1C(=O)NS(C)(=O)=O [Compound 697, 2-[2-(4-chlorophenyl)ethyl-(cyclohexylmethyl)amino]-5-methyl-N-methylsulfonyl-thiazole-4-carboxamide] | 251 | > 10000
12 | CS(=O)(=O)NC(=O)c1nc(N(Cc2ccc(C(F)(F)F)cn2)c2ccc(C#N)cc2)sc1Br [Compound 643, 5-bromo-2-[4-cyano-N-[[5-(trifluoromethyl)-2-pyridyl]methyl]anilino]-N-methylsulfonyl-thiazole-4-carboxamide] | 79.4 | 63.1
13 | Cc1sc(N(Cc2ccccc2)c2ccc(C#N)cc2)nc1C(=O)NS(=O)(=O)CCC(F)(F)F [Compound 387, 2-(N-benzyl-4-cyano-anilino)-5-methyl-N-(3,3,3-trifluoropropylsulfonyl)thiazole-4-carboxamide] | 63.1 | 398
14 | COCCCS(=O)(=O)NC(=O)c1nc(N(Cc2ncc(Cl)cc2F)c2ccc(C#N)cc2)sc1C [Example 169, 2-[N-[(5-chloro-3-fluoro-2-pyridyl)methyl]-4-cyano-anilino]-N-(3-methoxypropylsulfonyl)-5-methyl-thiazole-4-carboxamide] | 200 | 501
15 | Cc1sc(N(Cc2ccc(OC(F)F)cc2F)c2ccc(C#N)cc2)nc1C(=O)NS(C)(=O)=O [Compound 522, 2-[4-cyano-N-[[4-(difluoromethoxy)-2-fluoro-phenyl]methyl]anilino]-5-methyl-N-methylsulfonyl-thiazole-4-carboxamide] | 25.1 | 251
16 | Cc1sc(N(CCOC2CCCCC2)c2ccc(C#N)cc2)nc1C(=O)NS(C)(=O)=O [Compound 370, 2-[4-cyano-N-[2-(cyclohexoxy)ethyl]anilino]-5-methyl-N-methylsulfonyl-thiazole-4-carboxamide] | 79.4 | 2510
17 | Cc1sc(N(Cc2cnc(-c3ccccc3F)s2)c2ccc(C#N)cc2)nc1C(=O)NS(C)(=O)=O [Compound 495, 2-[4-cyano-N-[[2-(2-fluorophenyl)thiazol-5-yl]methyl]anilino]-5-methyl-N-methylsulfonyl-thiazole-4-carboxamide] | 39.8 | > 10000
18 | CS(=O)(=O)NC(=O)c1nc(N(Cc2ccc(Cl)cn2)c2ccc(C(F)(F)F)nc2)sc1Br [Compound 644, 5-bromo-2-[(5-chloro-2-pyridyl)methyl-[6-(trifluoromethyl)-3-pyridyl]amino]-N-methylsulfonyl-thiazole-4-carboxamide] | 200 | 501
19 | Cc1sc(N(CCC(C)(C)C)c2ccc(C#N)cc2)nc1C(=O)NS(C)(=O)=O [Compound 90, 2-[4-cyano-N-(3,3-dimethylbutyl)anilino]-5-methyl-N-methylsulfonyl-thiazole-4-carboxamide] | 398 | > 10000
20 | COc1ccccc1CN(c1ccc(C#N)cc1)c1nc(C(=O)NS(C)(=O)=O)c(C)s1 [Compound 455, 2-[4-cyano-N-[(2-methoxyphenyl)methyl]anilino]-5-methyl-N-methylsulfonyl-thiazole-4-carboxamide] | 100 | 501
21 | COCCCS(=O)(=O)NC(=O)c1nc(N(Cc2cc(F)cc(OC(F)F)c2)c2ccc(C#N)cc2)sc1C [Compound 519, 2-[4-cyano-N-[[3-(difluoromethoxy)-5-fluoro-phenyl]methyl]anilino]-N-(3-methoxypropylsulfonyl)-5-methyl-thiazole-4-carboxamide] | 25.1 | 158
